Numbered stars: 1 amine (or outer) side, 2 acyl side, 3 side chain; on linkers, the order of the positions; unused ones are H or OH. Square brackets hold non-standard residues; d marks the D form. Side chains are listed from the residue outwards. Peptide text beside a SMILES is read from it. * marks the point of attachment. Propanoyl(3-(4-F-phenyl)) = O=C(CCc1ccc(F)cc1)*; d1Nal = N[C@H](Cc1cccc2ccccc12)C(=O)O; Lys(iPr) = CC(C)NCCCC[C@H](N)C(=O)O; NMeY = CN[C@@H](Cc1ccc(O)cc1)C(=O)O; dBta = N[C@H](Cc1csc2ccccc12)C(=O)O; Pyrazinecarbonyl = O=C(c1cnccn1)*; Piperazinyl(4-Me) = CN1CCN(*)CC1; Nicotinoyl = O=C(c1cccnc1)*; CO = O=C([*:1])[*:2]
How the values were obtained:
LHRH receptors = molecular target: T1, LHRH receptors (Rattus norvegicus, UniProt P30969); test: Receptor Binding (radioligand receptor binding assay); settings: rat pituitary membranes, 2 hours at 4° C.; for Ki: read-out: Receptor Binding pkI (converted)
T1 construct: Pituitary membranes containing LHRH receptors are prepared in batches from quick-frozen rat pituitaries; tissue Hilltop Labs; host or cells: rat pituitary membranes
T1 sequence (P30969 1-327): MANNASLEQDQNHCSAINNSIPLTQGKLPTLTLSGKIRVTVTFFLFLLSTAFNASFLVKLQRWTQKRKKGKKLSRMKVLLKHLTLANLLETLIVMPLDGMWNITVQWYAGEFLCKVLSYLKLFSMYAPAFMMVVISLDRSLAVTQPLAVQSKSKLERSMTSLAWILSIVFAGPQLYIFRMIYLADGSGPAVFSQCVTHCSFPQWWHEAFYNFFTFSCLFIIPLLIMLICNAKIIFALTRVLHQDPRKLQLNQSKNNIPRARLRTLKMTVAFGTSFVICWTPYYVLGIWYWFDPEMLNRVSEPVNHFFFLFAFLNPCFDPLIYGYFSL

male castrate rats = test: In vivo LH Inhibiton; design: species or system rat; settings: table 4, 30 ug/kg subcutaneously by bolus injection, AUC of log (LHt /LHi)
Description: (c) In vivo LH Inhibiton. The compound to be tested is administered at 30 ug/kg subcutaneously by bolus injection to male castrate rats and blood samples are collected periodically over 24 hours. The AUC (area under the curve) of the LH suppression data as a function of time is calculated using the formula log (LHt /LHi) wherein LHt is the LH concentration in the blood at time t and LHi is the initial baseline LH concentration in the blood. The AUC values are negative numbers.

castrated rats = test: In vivo LH Release; design: species or system rat; settings: table 3, dose producing half-maximal LH release
Description: (d) In vivo LH Release. The compound to be tested is administered to castrated rats intraveneously and the serum LH concentration at various time points is measured by RIA. The time integrated LH response is calculated and the dose producing half-maximal LH release (ED50) is reported.

Rat pituitaries = molecular target: T2, Rat pituitaries (Rattus norvegicus, UniProt P30969); test: In vitro LH release suppression by LHRH antagonists in presence of superagonist [D-Leu^6 -Pro^9 NHEt]LHRH (pA2); format: cell-based; settings: negative log of concentration producing half-maximum suppression of LH
T2 sequence (P30969 1-327): T1 sequence (P30969 1-327)

| Compound | Ki (LHRH receptors; table 4, radioligand 50 pM) [pM] | AUC (24 hr. after 30 ug/kg) (male castrate rats) | other results |
| --- | --- | --- | --- |
| CCNC(=O)[C@@H]1CCCN1C(=O)[C@H](CCCCNC(C)C)NC(=O)[C@H](CC(C)C)NC(=O)[C@@H](CCCCNC(=O)c1cccnc1)NC(=O)[C@H](Cc1ccc(O)cc1)N(C)C(=O)[C@H](CO)NC(=O)[C@@H](Cc1cccc2ccccc12)NC(=O)CCc1ccc(F)cc1 [Compound 209, N-(3-(4-Fluorophenyl)propionyl)-D-1-Nal-Ser-NMeTyr-D-Lys(N-epsilon-nicotinyl)-Leu-Lys(N-epsilon-isopropyl)-Pro-NHEt] ({Propanoyl(3-(4-F-phenyl))}-[d1Nal]S[NMeY][dK](Nicotinoyl)L[Lys(iPr)]P-NHEt) | 2.4 | -343 |  |
| CC(C)C[C@H](NC(=O)[C@@H](CCCCNC(=O)c1cnccn1)NC(=O)[C@H](Cc1ccc(O)cc1)N(C)C(=O)[C@H](CO)NC(=O)[C@@H](Cc1cccc2ccccc12)NC(=O)CCc1ccc(F)cc1)C(=O)N[C@@H](CCCCNC(C)C)C(=O)N1CCC[C@H]1C(=O)N[C@H](C)C(N)=O [Compound 207, (3-10)[N-(3-(4-Fluorophenyl)propionyl)-D-1-Nal^3 -NMeTyr^5 -D-Lys^6 (N-epsilon-2-pyrazinyecarbonyl)-Lys^8 (N-epsilon-isopropyl)-D-Ala^10]LHRH] ({Propanoyl(3-(4-F-phenyl))}-[d1Nal]S[NMeY][dK](Pyrazinecarbonyl)L[Lys(iPr)]P[dA]-NH2) | 2.88 | -412 |  |
| CC(C)C[C@H](NC(=O)CNC(=O)[C@H](Cc1ccc(O)cc1)NC(=O)[C@H](CO)NC(=O)[C@H](Cc1c[nH]c2ccccc12)NC(=O)[C@H](Cc1c[nH]cn1)NC(=O)[C@@H]1CCC(=O)N1)C(=O)N[C@@H](CCCNC(=N)N)C(=O)N1CCC[C@H]1C(=O)NCC(N)=O [LHRH, Luteinizing hormone releasing hormone] |  |  | ED50 ug/kg i.v. (castrated rats): 859 µg/kg |
| CC(C)C[C@H](NC(=O)[C@@H](CCCCNC(=O)c1cccnc1)NC(=O)[C@H](Cc1ccc(O)cc1)N(C)C(=O)[C@H](CO)NC(=O)[C@@H](Cc1c[nH]c2ccccc12)NC(=O)CCc1ccc(F)cc1)C(=O)N[C@@H](CCCCNC(C)C)C(=O)N1CCC[C@H]1C(=O)N[C@H](C)C(N)=O [Compound 195, (3-10)[N-(3-(4-Fluorophenyl)propionyl)-D-Trp^3 -NMeTyr^5 -D-Lys^6 (N-epsilon-nicotinyl)-Lys^8 (N-epsilon-isopropyl)-D-Ala^10]LHRH] ({Propanoyl(3-(4-F-phenyl))}-[dW]S[NMeY][dK](Nicotinoyl)L[Lys(iPr)]P[dA]-NH2) | 23.4 | -158 |  |
| (2-9)[N-(N-alpha-Morpholinocarbonyl)-D,L-4-F-Phe^2 -D-Trp^6 -Pro^9 NHEt]LHRH [Compound 113] |  |  | Receptor Binding pkI (LHRH receptors; table 3, radioiodinated [D-Leu^6 -des Gly^10 ]-LHRH ethyl amide 50 pM): 9.51; LH Inhibition pA2 (Rat pituitaries; table 3): 8.63 |
| (3-10)[N-(3-(4-Fluorophenyl)propionyl)-D-Trp^3 -NMeTyr^5 -D-Lys^6 -D-Ala^10 ]LHRH [Compound 182] |  |  | Receptor Binding pkI (LHRH receptors; table 4, radioligand 50 pM): 10.55; LH Inhibition pA2 (Rat pituitaries; table 4): 9.32 |

Second part, led by results:

| Ki (LHRH receptors; table 4, radioligand 50 pM) [pM] | Compound | AUC (24 hr. after 30 ug/kg) (male castrate rats) | other results |
| --- | --- | --- | --- |
| 15.1 | CC(C)C[C@H](NC(=O)[C@@H](CCCCNC(=O)N1CCN(C)CC1)NC(=O)[C@H](Cc1ccc(O)cc1)N(C)C(=O)[C@H](CO)NC(=O)[C@@H](Cc1cccc2ccccc12)NC(=O)CCc1ccc(F)cc1)C(=O)N[C@@H](CCCNC(=N)N)C(=O)N1CCC[C@H]1C(=O)N[C@H](C)C(N)=O [Compound 211, N-(3-(4-Fluorophenyl)propionyl)-D-1-Nal-Ser-NMeTyr-D-Lys(N-epsilon-N'-N"-methylpiperazinecarbonyl)-Leu-Arg-Pro-D-AlaNH2] ({Propanoyl(3-(4-F-phenyl))}-[d1Nal]S[NMeY][dK]([CO-Piperazinyl(4-Me)])LRP[dA]-NH2) | -449 |  |
| 11.2 | CC(C)C[C@H](NC(=O)[C@@H](CCCCNC(=O)c1cccnc1)NC(=O)[C@H](Cc1ccc(O)cc1)N(C)C(=O)[C@H](CO)NC(=O)[C@@H](Cc1cccc2ccccc12)NC(=O)CCc1ccc(F)cc1)C(=O)N[C@@H](CCCCNC(C)C)C(=O)N1CCC[C@H]1C(=O)N[C@H](C)C(N)=O [Compound 197, (3-10)[N-(3-(4-Fluorophenyl)propionyl)-D-1-Nal^3 -NMeTyr^5 -D-Lys^6 (N-epsilon-nicotinyl)-Lys^8 (N-epsilon-isopropyl)-D-Ala^10]LHRH] ({Propanoyl(3-(4-F-phenyl))}-[d1Nal]S[NMeY][dK](Nicotinoyl)L[Lys(iPr)]P[dA]-NH2) | -688 |  |
| 5.89 | CC(C)C[C@H](NC(=O)[C@@H](CCCCN)NC(=O)[C@H](Cc1ccc(O)cc1)N(C)C(=O)[C@H](CO)NC(=O)[C@@H](Cc1csc2ccccc12)NC(=O)CCc1ccc(F)cc1)C(=O)N[C@@H](CCCNC(=N)N)C(=O)N1CCC[C@H]1C(=O)N[C@H](C)C(N)=O [Compound 177, (3-10)[N-(3-(4-Fluorophenyl)propionyl)-D-3-Bal^3 -NMeTyr^5 -D-Lys^6 -D-Ala^10]LHRH] ({Propanoyl(3-(4-F-phenyl))}-[dBta]S[NMeY][dK]LRP[dA]-NH2) | -938 |  |

Reference: patent publication US5140009A (Tap Pharmaceuticals, Inc., priority 1990, dated 1992)
